Data as given in PMC9031804, “The Peptide-Drug Conjugate TH1902: A New Sortilin Receptor-Mediated Cancer Therapeutic against Ovarian and Endometrial Cancers” (Cancers, 2022).

Columns and labels:
SKOV3 cells = experiment: Cell proliferation, MTT assay, SKOV3; type: cell-based; conditions: Homo sapiens, SK-OV-3, 96 h, mean ± SD, n = 3 to 5, read-out: IC50, anti-proliferative activity
Experimental: (§1) To assess the effects of docetaxel and TH1902 on ovarian and endometrial cancer cell proliferation, cells (ES-2: 3000 cells/well, SKOV3: 1000 cells/well, A2780: 7000 cells/well, AN3-CA: 7000 cells/well) were first seeded in 96-well plates (Perkin Elmer, Guelph, ON, Canada), then treated with various concentrations of drugs in complete cell culture medium. After 72 h of incubation for ES-2, A2780 and AN3-CA cells, or 96 h for SKOV3 cells, cell proliferation was measured using the 3-(4,5-dimethylthiazol-2-yl)-2,5-diphenyltetrazolium bromide (MTT) as described previously. Analyses were made in quadruplicate for each condition.

[1] = system: ES-2 ovarian cancer xenografts; experiment: ES-2 ovarian cancer xenograft tumor growth; type: in vivo, human tumor in female CD-1 nude mice; conditions: for Tumor progression, Size Increase (x-Fold Day-0): vehicle group endpoint Day 18, n = 6 mice/group
Source text: (§2) Animals were obtained from Charles River Laboratories, Inc. and allowed to acclimate for 5 days before experiments. Female CD-1 nude mice (Crl:CD1-Foxn1^nu, 4–6 weeks old; ES-2) or athymic nude mice (Crl:NU(NCr)-Foxn1^nu, 4–6 weeks old; SKOV3, A2780, AN3-CA) were used for the xenograft tumor models. Mice were maintained in a pathogen-free environment and handled in accordance with the Guidelines of the Canadian Council on Animal Care. Animal protocols were approved by the Institutional Animal Care and Use Committee of Université du Québec à Montréal (0620-C1R1-897-0621).
Tumor xenografts were established by subcutaneous inoculation of 5 × 10^6 cells (ES-2) or 7 × 10^6 cells (SKOV3) in 150 µL of HBSS; other xenografts were established by subcutaneous inoculation of 5 × 10^6 cells (A2780) or 2 × 10^6 cells (AN3-CA) in 150 µL of HBSS/Matrigel (50:50). All cells were injected into the right flanks of immunodeficient mice under light isoflurane anesthesia. The injection schedules and doses of injected substances are detailed in the figures. […] Note that three cycles of 15 mg/kg docetaxel is the maximum tolerated dose in mice and that 35 mg/kg TH1902 contains the same quantity of docetaxel (bis-linked to the peptide). […] Tumor growth was monitored by two-dimensional measurements taken with an electronic caliper and tumor volume was calculated according to the following formula: tumor volume (mm^3) = π/6 × length × width^2. Data are expressed as mean ± SEM and were analyzed using GraphPad Prism software.
Figure 6 Effects of docetaxel and TH1902 on ES-2 and SKOV3 ovarian cancer xenografts. […] Immunodeficient mice bearing subcutaneous ES-2 (A) or SKOV3 (B) tumors were intravenously injected weekly with either vehicle, docetaxel (at its MTD and quarter MTD doses; 15 and 3.75 mg/kg, respectively), or TH1902 (at a dosage which contains a quantity of bound docetaxel equal to the docetaxel doses; 35 and 8.75 mg/kg, respectively), as described in the methods section. […]

[2] = Mice weights, SKOV3 xenograft study; type: in vivo; conditions: docetaxel 15 mg/kg, three weekly cycles
Experimental: (§3) Tumor xenografts were established by subcutaneous inoculation of 5 × 10^6 cells (ES-2) or 7 × 10^6 cells (SKOV3) in 150 µL of HBSS; other xenografts were established by subcutaneous inoculation of 5 × 10^6 cells (A2780) or 2 × 10^6 cells (AN3-CA) in 150 µL of HBSS/Matrigel (50:50). All cells were injected into the right flanks of immunodeficient mice under light isoflurane anesthesia. The injection schedules and doses of injected substances are detailed in the figures. Briefly, when palpable ES-2, SKOV3 or AN3-CA tumors reached a volume of ~100 mm^3, mice were treated weekly with either vehicle, docetaxel (3.75 or 15 mg/kg) or TH1902 (8.75 or 35 mg/kg) at equivalent docetaxel amounts via intravenous (IV) tail vein injection. Note that three cycles of 15 mg/kg docetaxel is the maximum tolerated dose in mice and that 35 mg/kg TH1902 contains the same quantity of docetaxel (bis-linked to the peptide). […] Tumor growth was monitored by two-dimensional measurements taken with an electronic caliper and tumor volume was calculated according to the following formula: tumor volume (mm^3) = π/6 × length × width^2. Data are expressed as mean ± SEM and were analyzed using GraphPad Prism software. […]

ES-2 cells = experiment: Cell proliferation, MTT assay, ES-2; type: cell-based; conditions: Homo sapiens, 72 h, mean ± SD, n = 3 to 5, read-out: IC50, anti-proliferative activity
Experimental: as §1

[3] = system: AN3-CA endometrial cancer xenografts; experiment: AN3-CA endometrial cancer xenograft tumor growth; type: in vivo, human tumor in female athymic nude mice; conditions: for Tumor progression, Size Increase (x-Fold Day-0): vehicle group endpoint Day 14, n = 6 mice/group
Source text: as §2
(§4) Tumor xenografts were established by subcutaneous inoculation of 5 × 10^6 cells (ES-2) or 7 × 10^6 cells (SKOV3) in 150 µL of HBSS; other xenografts were established by subcutaneous inoculation of 5 × 10^6 cells (A2780) or 2 × 10^6 cells (AN3-CA) in 150 µL of HBSS/Matrigel (50:50). All cells were injected into the right flanks of immunodeficient mice under light isoflurane anesthesia. The injection schedules and doses of injected substances are detailed in the figures. Briefly, when palpable ES-2, SKOV3 or AN3-CA tumors reached a volume of ~100 mm^3, mice were treated weekly with either vehicle, docetaxel (3.75 or 15 mg/kg) or TH1902 (8.75 or 35 mg/kg) at equivalent docetaxel amounts via intravenous (IV) tail vein injection. Note that three cycles of 15 mg/kg docetaxel is the maximum tolerated dose in mice and that 35 mg/kg TH1902 contains the same quantity of docetaxel (bis-linked to the peptide). In A2780 xenografts, when palpable tumors reached a volume of ~250 mm^3, mice were treated with either vehicle, paclitaxel (10 mg/kg, IV), carboplatin (40 mg/kg, intraperitoneal (IP)), docetaxel (10 mg/kg, IV) or TH1902 (23 mg/kg, IV) bi-weekly as single agents or once on Day-0 as combinations with carboplatin. For combination treatments, both taxanes and TH1902 were injected 1 h following carboplatin administrations at the doses previously described. Injectable solutions were prepared as follows: TH1902 was solubilized at 10 mg/mL in 10% Tween-80 in D5W (pH 4.3, w/v) then further diluted with D5W; docetaxel was solubilized at 25 mg/mL in ethanol and Tween-80 (50/50, v/v) then further diluted with D5W; paclitaxel was solubilized at 25 mg/mL in ethanol and Cremophor EL (50/50, v/v) then further diluted in saline; carboplatin was solubilized at 50 mg/mL in water then further diluted in a solution of 30% PEG400 and 5% Tween-80 in D5W (w/v); vehicle composition and preparation mimicked highest dose of TH1902 preparation. Tumor growth was monitored by two-dimensional measurements taken with an electronic caliper and tumor volume was calculated according to the following formula: tumor volume (mm^3) = π/6 × length × width^2. Data are expressed as mean ± SEM and were analyzed using GraphPad Prism software.

[4] = mice; three (weekly) cycles; ref [31]; cited from earlier work
[5] = system: A2780 ovarian cancer xenografts; experiment: A2780 ovarian cancer xenograft tumor growth; type: in vivo, human tumor in female athymic nude mice; conditions: single agent 10 mg/kg IV bi-weekly
Source text: as §2, §4
Figure 8 Effects of TH1902 and carboplatin combinations on A2780 ovarian cancer xenografts. A2780 cells were subcutaneously implanted in the flanks of athymic nude mice. Tumor volume measurements following bi-weekly administrations of (A) vehicle, docetaxel, TH1902, paclitaxel or carboplatin as single agents, or (B) administered once in combination using the same dosage as described in the methods section. Colored dots below indicate drug treatments for all groups. Data are represented as mean ± SEM (n = 5 mice/group).

[6] = system: SKOV3 ovarian cancer xenografts; experiment: SKOV3 ovarian cancer xenograft tumor growth; type: in vivo, human tumor in female athymic nude mice; conditions: for Tumor progression, Size Increase (x-Fold Day-0): vehicle endpoint Day 28, n = 6 mice/group
Source text: as §2
Tumor xenografts were established by subcutaneous inoculation of 5 × 10^6 cells (ES-2) or 7 × 10^6 cells (SKOV3) in 150 µL of HBSS; other xenografts were established by subcutaneous inoculation of 5 × 10^6 cells (A2780) or 2 × 10^6 cells (AN3-CA) in 150 µL of HBSS/Matrigel (50:50). All cells were injected into the right flanks of immunodeficient mice under light isoflurane anesthesia. The injection schedules and doses of injected substances are detailed in the figures. Briefly, when palpable ES-2, SKOV3 or AN3-CA tumors reached a volume of ~100 mm^3, mice were treated weekly with either vehicle, docetaxel (3.75 or 15 mg/kg) or TH1902 (8.75 or 35 mg/kg) at equivalent docetaxel amounts via intravenous (IV) tail vein injection. Note that three cycles of 15 mg/kg docetaxel is the maximum tolerated dose in mice and that 35 mg/kg TH1902 contains the same quantity of docetaxel (bis-linked to the peptide). In A2780 xenografts, when palpable tumors reached a volume of ~250 mm^3, mice were treated with either vehicle, paclitaxel (10 mg/kg, IV), carboplatin (40 mg/kg, intraperitoneal (IP)), docetaxel (10 mg/kg, IV) or TH1902 (23 mg/kg, IV) bi-weekly as single agents or once on Day-0 as combinations with carboplatin. […] Tumor growth was monitored by two-dimensional measurements taken with an electronic caliper and tumor volume was calculated according to the following formula: tumor volume (mm^3) = π/6 × length × width^2. Data are expressed as mean ± SEM and were analyzed using GraphPad Prism software.
Figure 6 Effects of docetaxel and TH1902 on ES-2 and SKOV3 ovarian cancer xenografts. […] Immunodeficient mice bearing subcutaneous ES-2 (A) or SKOV3 (B) tumors were intravenously injected weekly with either vehicle, docetaxel (at its MTD and quarter MTD doses; 15 and 3.75 mg/kg, respectively), or TH1902 (at a dosage which contains a quantity of bound docetaxel equal to the docetaxel doses; 35 and 8.75 mg/kg, respectively), as described in the methods section. Mice in the ES-2 study were euthanized at vehicle group endpoint (Day 18), whereas indicated groups in SKOV3 study were monitored for a prolonged period up to Day 46 post start of treatments.

[7] = Mice weights, ES-2 xenograft study; type: in vivo; conditions: ES-2 study
[8] = Mice weights, A2780 xenograft study; type: in vivo; conditions: docetaxel 10 mg/kg IV, three cycles
Experimental: as §3

[9] = Mice weights, AN3-CA xenograft study; type: in vivo; conditions: docetaxel high dose 15 mg/kg, reversed when dosage was halved
Experimental: as §3

[10] = ref [38]; cited from earlier work
Source text: Taxanes, mainly paclitaxel and docetaxel, are well-known microtubule stabilizers used in various cancer including ovarian and endometrial cancer first-line therapies in the last thirty years. […] Here, the new chemical entity TH1902 is distinct from the docetaxel molecule as it selectively exploits SORT1’s internalization properties to trigger cell apoptosis in ES-2 and ...

A2780 cells = experiment: Cell proliferation, MTT assay, A2780; type: cell-based; conditions: Homo sapiens, 72 h, mean ± SD, n = 3 to 5, read-out: IC50, anti-proliferative activity
Experimental: as §1

[11] = system: SORT1 in SKOV3 ovarian cancer cells; experiment: Competition of TH19P01-Alexa^488 uptake, SKOV3; type: cell-based, human; conditions: 10 µM neurotensin, 2 h, n = 4
Experimental: (§5) Cells were grown in 12-well plates in complete media for 24 h. Where required, cells were transiently transfected with 100 nM of siRNA (either a scrambled, control siRNA, or one that was directed against a particular mRNA) for 24 h using Lipofectamine 2000. Cells were next washed with PBS and then incubated in HBSS without phenol red for 2 h at 37 °C in the presence or absence of 200 nM Alexa^488-labeled TH19P01 peptide. Alexa^488-labeled TH19P01 peptide uptake was also measured with or without competition by an excess of unlabeled TH19P01 peptide (50 µM) or neurotensin (10 µM) during a 2 h uptake before washing with serum-free media. Cell fluorescence was evaluated in the FL1 channel using a C6 Accuri flow cytometer (BD Biosciences, Mississauga, ON, Canada).
(§6) Figure 4 Internalization of TH19P01-Alexa^488 peptide by SORT1 in ovarian cancer cell lines. […] (B) Uptake of TH19P01-Alexa^488 into two ovarian cancer cell lines was measured in the presence of excess concentrations of substrates known to bind to SORT1 (50 µM TH19P01 and 10 µM neurotensin). […] Results are expressed as normalized RFU according to measurements of control wells. […]

[12] = system: SORT1 in ES-2 ovarian cancer cells; experiment: Competition of TH19P01-Alexa^488 uptake, ES-2; type: cell-based, human; conditions: 10 µM neurotensin, 2 h, n = 4
Experimental: as §5, §6

CC(=O)O[C@@]12CO[C@@H]1C[C@H](O)[C@@]1(C)C(=O)[C@H](O)C3=C(C)[C@@H](OC(=O)[C@H](O)[C@@H](NC(=O)OC(C)(C)C)c4ccccc4)C[C@@](O)([C@@H](OC(=O)c4ccccc4)[C@H]21)C3(C)C [Docetaxel, docetaxel]
IC50 (SKOV3 cells): 0.61 ± 0.1 nM
Tumor progression, Size Increase (x-Fold Day-0) ([1]; docetaxel 3.75 mg/kg IV weekly): 10.08 x-Fold Day-0
Tumor progression, Size Increase (x-Fold Day-0) ([1]; docetaxel 15 mg/kg IV weekly): 8.31 x-Fold Day-0
Effect on tumor growth ([1]; docetaxel, both 3.75 and 15 mg/kg IV weekly): produced little effect
Body weight loss [2]: > 10%
Body weight loss, in words [2]: severe weight loss
IC50 (ES-2 cells): 2.24 ± 0.99 nM
Tumor progression, Size Increase (x-Fold Day-0) ([3]; docetaxel 3.75 mg/kg IV weekly): 12.07 x-Fold Day-0
Tumor progression, Size Increase (x-Fold Day-0) ([3]; docetaxel 15 mg/kg IV weekly): 0.79 x-Fold Day-0
Tumor response on prolonged monitoring ([3]; docetaxel high dose 15 mg/kg (halved for final two treatments), before end of treatments): unresponsive and regrew before the end of treatments
Tumor regression ([3]; docetaxel high dose 15 mg/kg, vs vehicle endpoint): induced tumor regressions
Maximum tolerated dose [4]: 15 mg/kg
Tumor growth inhibition [5]: 43%
Tumor progression, Size Increase (x-Fold Day-0) ([5]; vehicle group endpoint, n = 5 mice/group): 4.13 x-Fold Day-0
Tumor progression, Size Increase (x-Fold Day-0) ([6]; docetaxel 3.75 mg/kg IV weekly): 9.70 x-Fold Day-0
Tumor progression, Size Increase (x-Fold Day-0) ([6]; docetaxel 15 mg/kg IV weekly): 2.25 x-Fold Day-0
Tumor regrowth on prolonged monitoring ([6]; docetaxel high dose 15 mg/kg, prolonged monitoring): could not sustain this effect, which is marked by tumor regrowth
Tumor growth inhibition ([6]; docetaxel high dose 15 mg/kg, vs vehicle endpoint Day 28): 84%
Tolerability / body weight ([7]; docetaxel high dose 15 mg/kg, three weekly cycles, vs initial weight): small weight loss
Tolerability / body weight ([7]; docetaxel low dose 3.75 mg/kg weekly): well-tolerated with slight weight gain
Body weight loss, in words [8]: significant body weight loss
Body weight loss, in words [9]: Rapid weight loss
Water solubility [10]: very poor water solubility
IC50 (A2780 cells): 1.76 ± 0.38 nM

neurotensin: known ligand of SORT1, synthesized in-house
TH19P01-Alexa^488 uptake with neurotensin [11]: reduced
TH19P01-Alexa^488 uptake with neurotensin [12]: reduced
